# According to ChEMBL document CHEMBL4024702, “Covalent Modifiers: A Chemical Perspective on the Reactivity of α,β-Unsaturated Carbonyls with Thiols via Hetero-Michael Addition Reactions” (J Med Chem, 2017):
# pEC50, pIC50, pKi: −log10 of the molar value. Non-standard residues stand in square brackets, D forms with d. Residues, ends and D or L forms follow the SMILES beside them. *: point of attachment. Cbz = O=C(OCc1ccccc1)*; Dap = NC[C@H](N)C(=O)O
# What was measured:
# [1] = Binding affinity to human rhinovirus serotype 14 3C protease; parameters: species or system rhinovirus B14
# rhinovirus B14 [2] = assay: Irreversible inhibition of human rhinovirus serotype 14 3C protease assessed as ratio of Kobs/I
# [3] = Half life in rat plasma; format: ADME, cell-free
# Enterovirus = assay: Antiviral activity against rhinovirus infected in human H1HeLa cells; format: functional; conditions: H1-HeLa
# [4] = Half life in dog plasma; format: ADME, cell-free, Canis lupus familiaris
# [5] = Cytotoxicity against human MRC5 cells; format: cell-based
# [6] = Half life in human plasma; format: ADME, cell-free
# rhinovirus B14 [7] = assay: Antiviral activity against rhinovirus serotype 14 infected in human H1HeLa cells after 2 days by XTT/PMS dye based assay; format: functional, cell-based; conditions: Rhinovirus B, H1-HeLa, 48 h
# [8] = Reversible inhibition of human rhinovirus serotype 14 3C protease by fluorescence resonance energy transfer assay; parameters: species or system rhinovirus B14
# [9] = Cytotoxicity against human H1HeLa cells after 2 days by XTT/PMS dye based assay; format: cell-based, H1-HeLa
# [10] = biological target: T1, Calpain-1 catalytic subunit (Homo sapiens, UniProt P07384); assay: Inhibition of human calpain 1 protease using Ac-LLY-AFC as substrate after 1 hr by fluorescence assay
# T1 sequence (P07384 whole entry): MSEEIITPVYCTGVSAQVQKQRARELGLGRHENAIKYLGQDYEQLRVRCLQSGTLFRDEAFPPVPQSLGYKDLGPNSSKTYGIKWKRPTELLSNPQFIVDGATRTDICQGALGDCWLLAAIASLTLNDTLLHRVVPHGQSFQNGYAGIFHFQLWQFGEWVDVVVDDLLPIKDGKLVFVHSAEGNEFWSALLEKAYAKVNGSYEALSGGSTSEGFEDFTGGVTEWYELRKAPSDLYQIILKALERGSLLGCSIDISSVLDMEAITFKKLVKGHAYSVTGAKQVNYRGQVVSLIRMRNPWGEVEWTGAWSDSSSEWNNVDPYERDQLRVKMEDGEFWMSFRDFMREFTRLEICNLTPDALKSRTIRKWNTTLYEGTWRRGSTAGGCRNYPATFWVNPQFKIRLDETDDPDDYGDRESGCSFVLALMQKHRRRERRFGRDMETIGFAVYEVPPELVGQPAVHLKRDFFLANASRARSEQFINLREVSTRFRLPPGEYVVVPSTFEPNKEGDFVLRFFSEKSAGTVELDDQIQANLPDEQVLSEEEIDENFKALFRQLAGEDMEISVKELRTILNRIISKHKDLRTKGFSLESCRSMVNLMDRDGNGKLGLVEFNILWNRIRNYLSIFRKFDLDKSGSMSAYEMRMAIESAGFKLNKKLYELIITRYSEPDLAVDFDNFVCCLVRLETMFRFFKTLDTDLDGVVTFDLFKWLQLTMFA
compound,measurement,setting,value
CC(=O)NC[C@@H](C=O)NC(=O)[C@H](Cc1ccccc1)NC(=O)[C@H](CC(C)C)NC(=O)OCc1ccccc1 (Cbz-Leu-Phe-[Dap](Ac)-aldehyde),pKi,[1],8.22
CCOC(=O)/C=C/C(C[C@@H]1CCNC1=O)NC(=O)[C@@H](CC(=O)[C@@H](NC(=O)c1cc(C)on1)C(C)C)Cc1ccc(F)cc1 (stereo partly specified),Ratio,rhinovirus B14 [2],1.47 ×10⁶ /M/s
same,half-life,[3],< 2 min
same,EC90,Enterovirus,18 to 261 nM
same,half-life,[4],> 1 h
same,CC50,[5],> 100000 nM
same,half-life,[6],> 1 h
CC(C)C[C@H](NC(=O)OCc1ccccc1)C(=O)N[C@@H](Cc1ccccc1)C(=O)N[C@H](/C=C1\CCCOC1=O)CCC(N)=O,pEC50,rhinovirus B14 [7],4.80
same,pKi,[8],7.52
same,CC50 at 48 h,[9],> 100000 nM
CCCCCC/C=C\CC(=O)N[C@@H](CO)C(=O)N[C@H](C(=O)N[C@@H](CO)[C@@H](O)CC(=O)N[C@H](C(=O)N[C@@H]1/C=C/C(=O)N[C@@H](C(C)C)C(=O)N(C)[C@@H](Cc2ccc(O)cc2)C(=O)OC1)C(C)C)C(C)C,pIC50,[10],7.10 to 8.52
